In the OligoGym collection:
After the bases stand the sugars from the 5' end (letter, count) and the backbone: PS all phosphorothioate, else s phosphorothioate and o phosphodiester by linkage. Methylation of C is not given here. e = 2'-O-(2-methoxyethyl) (MOE); k = constrained ethyl (cEt); d = 2'-deoxy (DNA); m = 2'-O-methyl

Molecular target: HSD17B13
Conditions: ASO, HepaRG

Sequence	target mRNA inhibition (1 µM) [%]	further results
AAAAATTGGCCTCCTG (sugars k3 d10 k3, PS)	41	–
AAAACATTGCTCTTCG (sugars k3 d10 k3, PS)	59	–
AAAACCGTCAAATAGG (sugars k3 d10 k3, PS)	28	–
AAAACTTCACCAACGA (sugars k3 d10 k3, PS)	29	–
AAAATAGAGTCGGTCA (sugars kkdddddddddkekek, PS)	53	–
AAAATCGCTGCTTAGT (sugars k3 d10 k3, PS)	35	–
AAAATTATGCCTTGTG (sugars k3 d10 k3, PS)	50	–
AAACAAGAGGATAGTC (sugars kkkdddddddkdkkke, PS)	45	–
AAACATCTCTGGGACC (sugars k3 d10 k3, PS)	–	target mRNA inhibition (0.02 µM): 0%; target mRNA inhibition (0.078 µM): 0%; target mRNA inhibition (0.313 µM): 33%; target mRNA inhibition (1.25 µM): 56%; target mRNA inhibition (5 µM): 78%
AAACCTTCATGCTAGT (sugars k3 d10 k3, PS)	27	–
AAACCTTGAATGAGTG (sugars k3 d10 k3, PS)	37	–
AAAGCCCTATTCTTCG (sugars k3 d10 k3, PS)	65	–
AAAGTTAGTTGGGCGA (sugars k3 d10 k3, PS)	26	–
AAATCTTGTGTAACTG (sugars k3 d10 k3, PS)	41	–
AAATTATTGCCTGAAC (sugars k3 d10 k3, PS)	32	–
AAATTCATAAGTAGTC (sugars k3 d10 k3, PS)	39	–
AAATTGGCCTCCTGGG (sugars k3 d10 k3, PS)	44	–
AAATTGGTTTCGAATC (sugars k3 d10 k3, PS)	32	–
AAATTTGCTGGAACTG (sugars k3 d10 k3, PS)	15	–
AAATTTGTGAACCTGC (sugars k3 d10 k3, PS)	26	–
AACAATCAGGAGTTGC (sugars k3 d10 k3, PS)	31	–
AACACTAATCTCAGTA (sugars k3 d10 k3, PS)	15	–
AACAGTCTTAAACCTT (sugars k3 d1 m1 d8 k3, PS)	75	–
AACATCTCTGGGACCA (sugars k3 d9 k3 e1, PS)	61	–
AACCTATGTGTGCACC (sugars k3 d10 k3, PS)	73	–

Sequence	target mRNA inhibition (1 µM) [%]	further results
AACCTTTGTTGCCTGG (sugars k3 d10 k3, PS)	36	–
AACGACTCCAAGTAGG (sugars k3 d10 k3, PS)	27	–
AACTACAAGAGGTTAT (sugars k3 d10 k3, PS)	57	–
AACTACATGACCTGGG (sugars k3 d10 k3, PS)	27	–
AACTAGTGGTAATGGT (sugars k3 d10 k3, PS)	32	–
AACTCTAAATACCCTT (sugars k3 d10 k3, PS)	28	–
AACTCTATTGATTGGC (sugars k3 d10 k3, PS)	72	–
AACTGAAGGTCTGAGC (sugars k3 d10 k3, PS)	55	–
AACTTCACCAACGACT (sugars k3 d10 k3, PS)	0	–
AACTTCATAGTGGACT (sugars kkdddddddddkekek, PS)	68	–
AAGAAATTTGTGAACC (sugars k3 d10 k3, PS)	21	–
AAGACATTCTAGCCTG (sugars k3 d9 k3 e1, PS)	40	–
AAGATACCCAGGTTGC (sugars k3 d9 k3 e1, PS)	69	–
AAGATACCCAGGTTGC (sugars kkdddddddddkekek, PS)	59	–
AAGATTAGTCTTGATG (sugars k3 d10 k3, PS)	25	–
AAGCTTTGCAGCATTG (sugars k3 d10 k3, PS)	59	–
AAGGAGTAGTGGAGCC (sugars k3 d10 k3, PS)	38	–
AAGGTTAGATTTCATC (sugars k3 d10 k3, PS)	80	target mRNA inhibition (0.02 µM): 1%; target mRNA inhibition (0.078 µM): 14%; target mRNA inhibition (0.313 µM): 60%; target mRNA inhibition (1.25 µM): 64%; target mRNA inhibition (5 µM): 78%
AAGTAGATGGTAAGTC (sugars k3 d10 k3, PS)	85	target mRNA inhibition (0.02 µM): 7%; target mRNA inhibition (0.078 µM): 42%; target mRNA inhibition (0.313 µM): 67%; target mRNA inhibition (1.25 µM): 89%; target mRNA inhibition (5 µM): 95%
AAGTTACCAGAGCATT (sugars k3 d10 k3, PS)	70	target mRNA inhibition (0.02 µM): 0%; target mRNA inhibition (0.078 µM): 5%; target mRNA inhibition (0.313 µM): 45%; target mRNA inhibition (1.25 µM): 80%; target mRNA inhibition (5 µM): 90%
AAGTTAGCCCCCAGGA (sugars k3 d9 k3 e1, PS)	23	–
AAGTTTGTTAGAGTGC (sugars k3 d10 k3, PS)	74	–
AAGTTTTGGGACCAAT (sugars k3 d10 k3, PS)	11	–
AATAATAGCTCTATTG (sugars k3 d9 k3 e1, PS)	3	–
AATACAGGATAGAGCA (sugars k3 d10 k3, PS)	0	–

Sequence	target mRNA inhibition (1 µM) [%]	further results
AATACGACTTCCTTCT (sugars k3 d10 k3, PS)	26	–
AATACTCCCCAATTGC (sugars k3 d10 k3, PS)	0	–
AATAGAGTCGGTCACC (sugars k3 d9 k3 e1, PS)	58	–
AATAGAGTTGCACCGT (sugars k3 d10 k3, PS)	48	–
AATAGCCAGTACAGTT (sugars k3 d1 m1 d8 k3, PS)	66	–
AATAGTCTTCAGCAAA (sugars k3 d10 k3, PS)	48	–
AATATGTCCAGGTTGA (sugars k3 d10 k3, PS)	64	–
AATATTGAGGCACTGG (sugars k3 d9 k3 e1, PS)	36	–
AATCCCAACCAAACTT (sugars kkdddddddddkekek, PS)	17	–
AATGAATCATGATTGA (sugars k3 d10 k3, PS)	33	–
AATGAGGCGGCACTCA (sugars k3 d10 k3, PS)	20	–
AATGCTACTTGAACAG (sugars k3 d1 m1 d8 k3, PS)	34	–
AATGCTACTTGAACAG (sugars k3 d10 k3, PS)	54	–
AATGTAAGAAGCCACG (sugars k3 d10 k3, PS)	26	–
AATTATTTCTTGCGAG (sugars k3 d10 k3, PS)	16	–
AATTCACCTTGACTAA (sugars k3 d1 m1 d8 k3, PS)	0	–
AATTCACCTTGACTAA (sugars kkdddddddddkekek, PS)	9	–
AATTCTATAGCTAAGT (sugars k3 d10 k3, PS)	9	–
AATTGTCTAAACATCT (sugars k3 d10 k3, PS)	62	–
AATTTATTTGCTGGTC (sugars k3 d10 k3, PS)	27	–
AATTTCATACAGTTCG (sugars k3 d10 k3, PS)	66	–
ACAACCCTTAACAAAC (sugars k3 d10 k3, PS)	26	–
ACAAGAGGATAGTCCA (sugars k3 d10 k3, PS)	64	–
ACAATATGGGATGAGG (sugars k3 d10 k3, PS)	71	target mRNA inhibition (0.02 µM): 29%; target mRNA inhibition (0.078 µM): 7%; target mRNA inhibition (0.313 µM): 43%; target mRNA inhibition (1.25 µM): 65%; target mRNA inhibition (5 µM): 85%
ACAATCAGGAGTTGCA (sugars k3 d10 k3, PS)	62	–

Sequence	target mRNA inhibition (1 µM) [%]	further results
ACACTAATATTGAGGC (sugars k3 d9 k3 e1, PS)	68	–
ACACTAATATTGAGGC (sugars k3 d10 k3, PS)	68	target mRNA inhibition (0.02 µM): 28%; target mRNA inhibition (0.078 µM): 32%; target mRNA inhibition (0.313 µM): 37%; target mRNA inhibition (1.25 µM): 58%; target mRNA inhibition (5 µM): 85%
ACACTAATCTCAGTAC (sugars k3 d10 k3, PS)	6	–
ACAGAACCAATATGCT (sugars k3 d10 k3, PS)	40	–
ACAGACTAAGGGACCA (sugars k3 d10 k3, PS)	68	–
ACAGAGAATTGTTTAG (sugars k3 d10 k3, PS)	39	–
ACAGAGTTATTGTAGG (sugars k3 d10 k3, PS)	58	–
ACAGGTAATTAATCTT (sugars k3 d10 k3, PS)	39	–
ACAGTTCCTTTTCCTG (sugars k3 d10 k3, PS)	58	–
ACAGTTGAGTAGTGTA (sugars k3 d10 k3, PS)	72	–
ACAGTTTAGATTGCAT (sugars k3 d10 k3, PS)	84	target mRNA inhibition (0.02 µM): 12%; target mRNA inhibition (0.078 µM): 0%; target mRNA inhibition (0.313 µM): 73%; target mRNA inhibition (1.25 µM): 73%; target mRNA inhibition (5 µM): 97%
ACATAACTTCATAGTG (sugars k3 d10 k3, PS)	27	–
ACATACGCATGCGCAG (sugars k3 d10 k3, PS)	20	–
ACATAGACATGTGTTC (sugars k3 d10 k3, PS)	35	–
ACATATGTGAAGAGCT (sugars k3 d10 k3, PS)	66	–
ACATCCAAGTAATTAC (sugars k3 d10 k3, PS)	56	–
ACATTAGCAAGCTAAG (sugars k3 d10 k3, PS)	52	–
ACATTGCAGTTATTAG (sugars k3 d9 k3 e1, PS)	52	–
ACATTGCAGTTATTAG (sugars kkdddddddddkekek, PS)	46	–
ACCAAACTTCCAGCAG (sugars kkdddddddddkekek, PS)	32	–
ACCAACGACTCCAAGT (sugars k3 d10 k3, PS)	16	–
ACCAATATGCTCTGTC (sugars k3 d10 k3, PS)	67	target mRNA inhibition (0.02 µM): 19%; target mRNA inhibition (0.078 µM): 5%; target mRNA inhibition (0.313 µM): 41%; target mRNA inhibition (1.25 µM): 78%; target mRNA inhibition (5 µM): 97%
